Experimental data published in patent US20090181975A1, “NEBIVOLOL IN THE TREATMENT OF SEXUAL DYSFUNCTION” (FOREST LABORATORIES HOLDINGS LIMITED, priority 2008, published 2009).

What was measured:
anesthetized rats = test: Mean arterial pressure (MAP) and heart rate (HR) in anesthetized rats; type: in vivo, rat (Sprague-Dawley); conditions: nebivolol 3 mg/kg i.v.; L-NAME 3 mg/kg, ODQ 1 mg/kg, propranolol 1 mg/kg, sildenafil 0.3 mg/kg i.v.
Description: To determine blood pressure and heart rate, Sprague-Dawley rats (250-400 g) were anesthetized with ketolar and diazepam. The right carotid artery was catheterized for constant blood pressure and heart rate measurement by means of a pressure transducer connected to a PowerLab data acquisition system (ADInstruments). The left external jugular vein was catheterized for saline or drug infusion. 3 mg/kg nebivolol (n=6) or vehicle (50% glycofurol; n=4) was administered intravenously in anesthetized rats and MAP and HR were measured. […] The effect of nebivolol in combination with the type 5 phosphodiesterase (PDE-5) inhibitor sildenafil on hypotension and heart rate was studied in rats using the methods described above.

[1] = system: nitrite plus nitrate (NOx) in rat serum; test: Serum nitrite plus nitrate (NOx) by Griess colorimetric method; type: in vivo; conditions: nebivolol 3 mg/kg i.v.; L-NAME 3 mg/kg, ODQ 1 mg/kg, propranolol 1 mg/kg, sildenafil 0.3 mg/kg
Description: Total NO derivatives (nitrites plus nitrates) were measured in pre-filtered (10,000 MW pore size) serum samples from the studied rats by the Griess colorimetric method, using a commercial kit for nitrite and nitrate determination from Cayman Chemical Co. (Ann Arbor, Mich.). Serum concentrations of NOx were determined 10 minutes after nebivolol administration.

cGMP in rat plasma = test: Plasma cGMP content by ELISA; type: in vivo, rat (Sprague-Dawley); conditions: nebivolol 3 mg/kg i.v.; L-NAME 3 mg/kg, ODQ 1 mg/kg, propranolol 1 mg/kg
Description: To determine the plasma cGMP content, Sprague-Dawley rats were anesthetized with urethane (1.25 g/kg). The right carotid artery was catheterized for constant blood pressure and heart rate measurement by means of a pressure transducer connected to a PowerLab data acquisition system (ADInstruments). The left external jugular vein was catheterized for saline or drug infusion. After administering the respective treatments, rat plasma samples were collected, immediately frozen and stored at −80° C. until extraction for cyclic nucleotide assay. cGMP was determined by ELISA using a kit from Cayman Chemical Co. Plasmatic cGMP levels were determined 10 minutes after nebivolol administration.

[2] = system: human corpus cavernosum (HCC) strips; test: Relaxation of human corpus cavernosum strips contracted with U46619; type: cell-based; conditions: metoprolol 1 μM, atenolol 1 μM, nebivolol 0.3 μM
Description: Specimens of human corpus cavernosum were obtained from organ donors and from impotent men at the time of penile prosthesis implantation. Tissues were placed in ice-cold M-400 solution (pH 7.4; 400 mOsm/kg, composition in w/v: 4.19% manitol, 0.2% KH2PO4, 0.97% K2HPO4.3H2O, 0.11% KCl and 0.08% NaHCO3) at the time of removal and transported to the laboratory for utilization within 16 h. Strips of human corpus cavemosum were mounted on force transducers in 8 ml organ baths (37° C.) containing physiological salt solution (PSS) continuously bubbled with 95% O2/5% CO2 mixture to maintain a pH of 7.4. Strips were contracted with the thromboxane receptor agonist U46619 (1-3 nM) and relaxation responses were evaluated by cumulative additions of compounds to the chambers.

[3] = system: human penile resistance arteries (HPRA); test: Relaxation of human penile resistance arteries contracted with U46619 (myograph); type: cell-based; parameters: effect on endothelium-dependent relaxation of HPRA caused by acetylcholine / effect on sildenafil-mediated relaxation of HPRA: unit of the concentration uncertain; conditions: metoprolol (1 (unit uncertain)), atenolol (1 (unit uncertain)), nebivolol (0.3 (unit uncertain))
Description: Specimens of human corpus cavernosum were obtained from organ donors and from impotent men at the time of penile prosthesis implantation. Tissues were placed in ice-cold M-400 solution (pH 7.4; 400 mOsm/kg, composition in w/v: 4.19% manitol, 0.2% KH2PO4, 0.97% K2HPO4.3H2O, 0.11% KCl and 0.08% NaHCO3) at the time of removal and transported to the laboratory for utilization within 16 h.
To determine the resistance of penile small arteries, helicine arteries (lumen diameter 150-400 μm) which are the terminal branches of deep penile arteries, were dissected by carefully removing the adhering trabecular tissue, and arterial ring segments (2 mm long) were subsequently mounted on two 40 μm wires on microvascular double Halpern-Mulvany myographs (J.P. Trading, Aarhus, Denmark) for isometric tension recordings. The chambers were filled with PSS continuously bubbled with 95% O2/5% CO2 mixture to maintain a pH of 7.4. […]

Row | Compound | effect on heart rate reduction caused by nebivolol (anesthetized rats) | effect on hypotension caused by nebivolol (anesthetized rats) | effect on nebivolol-induced increment in serum NOx [1] | effect on nebivolol-induced increase in plasma cGMP (cGMP in rat plasma) | effect on acetylcholine-induced endothelium-dependent relaxation of HCC strips [2] | effect on endothelium-dependent relaxation of HPRA caused by acetylcholine [3]
1 | COC(=O)[C@@H](N)CCCNC(=N)N[N+](=O)[O-] [L-NAME, Nω-nitro-L-arginine methyl ester] | did not affect | significantly reduced | prevents this effect | slightly reduced | – | –
2 | O=c1onc2cnc3ccccc3n12 [ODQ, 1-H-(1,2,4)oxadiazolo(4,3-alpha)quinoxaline-1-one] | did not significantly modify | did not significantly modify | prevents this effect | slightly reduced | – | –
3 | COCCc1ccc(OCC(O)CNC(C)C)cc1 (stereo not shown) [metoprolol] | – | – | – | – | not significantly modified | not affected
4 | CC(C)NCC(O)COc1cccc2ccccc12 (stereo not shown) [propranolol] | significantly reduced the impact | without affecting | – | not influenced | – | –
